Experimental data taken from patent US20090017047A1, “Preparation for the Prevention and Treatment of Stress Conditions as Well as Functional and Organic Disorders of the Nervous System and Metabolic Disorders” (priority 2004, published 2009).
Where two headings read alike, the source gives them in different places.

What was measured:
[1] = system: NMDA receptors (N-methyl-D-aspartate receptors); details: opening of the ion channel induced by glutamate
[2] = very low application dosage
[3] = Pharmacological effect and tolerability of glycine on administration; details: in vivo

NCC(=O)O [Glycine]
effect on the excitatory NMDA receptors [1]: shows an effect as a co-transmitter | uptake into the central nervous system ([2]; application via the mucous membranes, avoiding the first-pass effect): very fast uptake | uptake into the central nervous system [2]: very quick uptake | negative effects with other applications of drugs [3]: No negative effects | time until the preparation acts [3]: 5 to 10 min | undesired side-effects [3]: have not been proven | undesired side-effects ([3]; listed as glycine): No undesired side-effects have been established
